According to PubChem BioAssay AID330 (DTP/NCI, 2004):
“And” between values parts separate entries of the source, which are not always exact repeats. Equal entries are not always repeated. Toxic doses and inconclusive results are not listed.

Tested on: P388 leukemia ip, CD2F1 mice, survival T/C
Test: NCI In Vivo Anticancer Drug Screen. Data for tumor model P388 Leukemia (intraperitoneal) in CD2F1 (CDF1) mice
Conditions: endpoint: median survival time, higher = longer survival
How it was run: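 Mice carrying the transplanted tumor received test compound or vehicle. Survival was recorded in each group, and the value is the treated-group measurement divided by that of the vehicle-treated control group.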

[1] = dose: 12.5 mg/kg/injection, schedule: Q01DX009 (ip), vehicle: saline
[2] = dose: 25.0 mg/kg/injection, schedule: Q01DX009 (ip), vehicle: saline
[3] = dose: 50.0 mg/kg/injection, schedule: Q01DX009 (ip), vehicle: saline
[4] = dose: 100.0 mg/kg/injection, schedule: Q01DX009 (ip), vehicle: saline
[5] = dose: 200.0 mg/kg/injection, schedule: Q01DX009 (ip), vehicle: saline
[6] = dose: 6.25 mg/kg/injection, schedule: Q01DX009 (ip), vehicle: saline with Tween-80
[7] = dose: 12.5 mg/kg/injection, schedule: Q01DX009 (ip), vehicle: saline with Tween-80
[8] = dose: 25.0 mg/kg/injection, schedule: Q01DX009 (ip), vehicle: saline with Tween-80
[9] = dose: 50.0 mg/kg/injection, schedule: Q01DX009 (ip), vehicle: saline with Tween-80
[10] = dose: 60.0 mg/kg/injection, schedule: Q01DX005 (ip), vehicle: Klucel (hydroxypropylcellulose) (HPC)
[11] = dose: 120.0 mg/kg/injection, schedule: Q01DX005 (ip), vehicle: Klucel (hydroxypropylcellulose) (HPC)
[12] = dose: 240.0 mg/kg/injection, schedule: Q01DX005 (ip), vehicle: Klucel (hydroxypropylcellulose) (HPC)
[13] = dose: 50.0 mg/kg/injection, schedule: Q01DX005 (ip), vehicle: Klucel (hydroxypropylcellulose) (HPC)
[14] = dose: 100.0 mg/kg/injection, schedule: Q01DX005 (ip), vehicle: Klucel (hydroxypropylcellulose) (HPC)
[15] = dose: 200.0 mg/kg/injection, schedule: Q01DX005 (ip), vehicle: Klucel (hydroxypropylcellulose) (HPC)
[16] = dose: 60.0 mg/kg/injection, schedule: Q01DX005 (ip), vehicle: saline with Tween-80
[17] = dose: 120.0 mg/kg/injection, schedule: Q01DX005 (ip), vehicle: saline with Tween-80
[18] = dose: 240.0 mg/kg/injection, schedule: Q01DX005 (ip), vehicle: saline with Tween-80
[19] = dose: 50.0 mg/kg/injection, schedule: Q04DX003 (ip), vehicle: saline with Tween-80
[20] = dose: 100.0 mg/kg/injection, schedule: Q04DX003 (ip), vehicle: saline with Tween-80
[21] = dose: 100.0 mg/kg/injection, schedule: Q01DX009 (ip), vehicle: saline with Tween-80

CCCCCCC1(/C=C/c2ccc(Cl)c(Cl)c2)OCCS1 (stereo not given)
T/C [1]: 96 % of control | T/C [2]: 104 % of control | T/C [3]: 100 % of control and 109 % of control and 95 % of control | T/C [4]: 95 % of control | T/C [5]: 88 % of control

[Cl][Pt]([Cl])([Cl])[Cl].c1ccc2[nH]cnc2c1.c1ccc2[nH]cnc2c1
T/C (dose: 1.56 mg/kg/injection, schedule: Q01DX005 (ip), vehicle: saline with Tween-80): 87 % of control | T/C (dose: 3.12 mg/kg/injection, schedule: Q01DX005 (ip), vehicle: saline with Tween-80): 97 % of control | T/C (dose: 6.25 mg/kg/injection, schedule: Q01DX005 (ip), vehicle: saline with Tween-80): 94 % of control | T/C (dose: 50.0 mg/kg/injection, schedule: Q01DX005 (ip), vehicle: saline with Tween-80): 99 % of control and 96 % of control

Nc1ccccc1-c1ccccc1N
T/C (dose: 60.0 mg/kg/injection, schedule: Q01DX005 (ip), vehicle: suspension in saline): 99 % of control | T/C (dose: 120.0 mg/kg/injection, schedule: Q01DX005 (ip), vehicle: suspension in saline): 103 % of control | T/C (dose: 240.0 mg/kg/injection, schedule: Q01DX005 (ip), vehicle: suspension in saline): 90 % of control

CCOC(=O)/C=C(\C)SC1=CC(=O)c2ccccc2C1=O
T/C (dose: 3.13 mg/kg/injection, schedule: Q01DX009 (ip), vehicle: saline with Tween-80): 86 % of control | T/C [6]: 94 % of control | T/C [7]: 99 % of control and 122 % of control | T/C [8]: 100 % of control and 111 % of control | T/C [9]: 100 % of control and 107 % of control

c1ccc2c(c1)-c1nc-2nc2[nH]c(nc3nc(nc4[nH]c(n1)c1ccccc41)-c1ccccc1-3)c1cc3c4nc5nc(nc6[nH]c(nc7nc(nc([nH]4)c3cc21)-c1ccccc1-7)c1ccccc61)-c1ccccc1-5
T/C [10]: 106 % of control | T/C [11]: 100 % of control | T/C [12]: 97 % of control

O=C(C[N+]12CN3CN(CN(C3)C1)C2)c1ccc2c(c1)CCCC2
T/C [13]: 100 % of control | T/C [14]: 103 % of control | T/C [15]: 106 % of control

O=C(O)COc1c2occc2cc2ccc(=O)oc12
T/C [16]: 97 % of control | T/C [17]: 96 % of control | T/C [18]: 100 % of control

CCCn1c(C)nc2[nH]ncc2c1=O
T/C [13]: 100 % of control | T/C [14]: 98 % of control | T/C [15]: 92 % of control

COc1cc2cccc(O)c2cc1OC
T/C (dose: 12.5 mg/kg/injection, schedule: Q01DX009 (ip), vehicle: other): 90 % of control | T/C (dose: 25.0 mg/kg/injection, schedule: Q01DX009 (ip), vehicle: other): 106 % of control | T/C (dose: 50.0 mg/kg/injection, schedule: Q01DX009 (ip), vehicle: other): 92 % of control | T/C (dose: 200.0 mg/kg/injection, schedule: Q01DX009 (ip), vehicle: other): 90 % of control

COc1cc2c(cc1C(C)c1ccc(C)cc1)OCO2 (stereo not given)
T/C [13]: 103 % of control | T/C [14]: 110 % of control | T/C [15]: 114 % of control

CC1CCC(C(C)C)C(NC(=O)c2ccncc2)C1 (stereo not given)
T/C [13]: 100 % of control | T/C [14]: 101 % of control | T/C [15]: 105 % of control

CCCCCCCCCCCCCCCC[N+](C)(C)CCN
T/C [1]: 93 % of control | T/C [2]: 99 % of control | T/C [3]: 106 % of control

Nc1nnc2nc(C(C(=O)c3cccc(O)c3)c3nc4nnc(N)n4[nH]c3=O)c(=O)[nH]n12
T/C (dose: 60.0 mg/kg/injection, schedule: Q01DX005 (ip), vehicle: saline): 97 % of control | T/C (dose: 120.0 mg/kg/injection, schedule: Q01DX005 (ip), vehicle: saline): 106 % of control | T/C (dose: 240.0 mg/kg/injection, schedule: Q01DX005 (ip), vehicle: saline): 97 % of control

Cc1ccc2cccc(OC(=O)Nc3cc(Cl)c(Cl)cc3Cl)c2n1
T/C (dose: 15.0 mg/kg/injection, schedule: Q01DX005 (ip), vehicle: saline with Tween-80): 100 % of control | T/C (dose: 30.0 mg/kg/injection, schedule: Q01DX005 (ip), vehicle: saline with Tween-80): 93 % of control | T/C [16]: 93 % of control | T/C [18]: 94 % of control

COc1ccc2c(c1)OC(C)(C)c1c-2n(C)c2c(F)cccc2c1=O
T/C [10]: 100 % of control | T/C [11]: 101 % of control | T/C [12]: 101 % of control

Nc1nnc(-c2ccc(Br)cc2)o1
T/C [16]: 106 % of control | T/C [17]: 109 % of control | T/C [18]: 114 % of control

CCN(C(=O)CCl)c1ccccc1C
T/C [19]: 100 % of control | T/C [20]: 100 % of control

CCOC(=O)CNc1c2ccc(Cl)cc2nc2ccc(OC)cc12
T/C [6]: 97 % of control | T/C [7]: 104 % of control | T/C [8]: 111 % of control | T/C [9]: 108 % of control | T/C [21]: 104 % of control

Cc1ccc(C(SCC(N)C(=O)O)(c2ccccc2)c2ccc(C)cc2)cc1 (stereo not given)
T/C [19]: 186 % of control | T/C [20]: 200 % of control | T/C (dose: 132.0 mg/kg/injection, schedule: Q04DX003 (ip), vehicle: saline with Tween-80): 172 % of control | T/C (dose: 200.0 mg/kg/injection, schedule: Q04DX003 (ip), vehicle: saline with Tween-80): 177 % of control and 200 % of control | T/C (dose: 300.0 mg/kg/injection, schedule: Q04DX003 (ip), vehicle: saline with Tween-80): 263 % of control

CSC(=S)NN=C(c1ccccc1)c1ccccc1
T/C (dose: 0.78 mg/kg/injection, schedule: Q01DX009 (ip), vehicle: saline): 102 % of control | T/C (dose: 1.56 mg/kg/injection, schedule: Q01DX009 (ip), vehicle: saline): 102 % of control | T/C (dose: 3.12 mg/kg/injection, schedule: Q01DX009 (ip), vehicle: saline): 100 % of control | T/C [4]: 113 % of control | T/C [5]: 96 % of control

CCCCCCCCC(=O)N1SC(NC(=O)OC)=Nc2ccccc21
T/C (dose: 50.0 mg/kg/injection, schedule: Q01DX005 (ip), vehicle: acetone): 98 % of control | T/C (dose: 100.0 mg/kg/injection, schedule: Q01DX005 (ip), vehicle: acetone): 93 % of control | T/C (dose: 200.0 mg/kg/injection, schedule: Q01DX005 (ip), vehicle: acetone): 111 % of control

CCCN1c2c3c(O)c4c(O)c(C)c5c(c4c2O)C(=O)C(C)(O/C=C/C(OC)C(C)C(OC(C)=O)C(C)C(O)C(C)C(O)C(C)/C=C/C=C(/C)C(=O)N3C1C)O5 (stereo not given)
T/C (dose: 25.0 mg/kg/injection, schedule: Q01DX009 (ip), vehicle: Klucel (hydroxypropylcellulose) (HPC)): 96 % of control | T/C (dose: 50.0 mg/kg/injection, schedule: Q01DX009 (ip), vehicle: Klucel (hydroxypropylcellulose) (HPC)): 101 % of control | T/C (dose: 100.0 mg/kg/injection, schedule: Q01DX009 (ip), vehicle: Klucel (hydroxypropylcellulose) (HPC)): 93 % of control | T/C (dose: 200.0 mg/kg/injection, schedule: Q01DX009 (ip), vehicle: Klucel (hydroxypropylcellulose) (HPC)): 90 % of control

COc1cccc2c1C(=O)c1c(O)c3c(c(O)c1C2=O)C[C@@](O)(C(=O)CO)C[C@@H]3OC1CC(N2CCCCC2)C(O)C(C)O1 (stereo not given in full)
T/C (dose: 0.78 mg/kg/injection, schedule: Q01DX009 (ip), vehicle: water): 151 % of control | T/C (dose: 1.2 mg/kg/injection, schedule: Q04DX003 (ip), vehicle: water): 100 % of control | T/C (dose: 1.56 mg/kg/injection, schedule: Q01DX009 (ip), vehicle: water): 184 % of control | T/C (dose: 2.4 mg/kg/injection, schedule: Q04DX003 (ip), vehicle: water): 113 % of control | T/C (dose: 3.13 mg/kg/injection, schedule: Q01DX009 (ip), vehicle: water): 190 % of control | T/C (dose: 4.7 mg/kg/injection, schedule: Q04DX003 (ip), vehicle: water): 106 % of control | T/C (dose: 9.4 mg/kg/injection, schedule: Q04DX003 (ip), vehicle: water): 155 % of control | T/C (dose: 37.5 mg/kg/injection, schedule: Q04DX003 (ip), vehicle: water): 87 % of control

Clc1ccc2c(NCC3CCCN4CCCCC34)ccnc2c1 (stereo not given)
T/C [13]: 104 % of control | T/C [14]: 101 % of control

Cn1c(=O)c2nc(-c3ccccc3)c(-c3ccccc3)nc2n(C)c1=O
T/C [7]: 96 % of control | T/C [8]: 96 % of control | T/C [9]: 107 % of control | T/C [21]: 107 % of control

Cc1c(-c2ccccc2)ccnc1/C=N/NC(=S)Nc1ccc(N(C)C)cc1
T/C (dose: 3.12 mg/kg/injection, schedule: Q01DX009 (ip), vehicle: saline with Tween-80): 119 % of control | T/C [6]: 153 % of control
